Data reported in patent US7109338B2, “1,2-disubstituted 1,4-dihydro-4-oxoquinoline compounds” (priority 1999, dated 2006).
In brackets after ≈: the same amount, converted by molar mass.

How the values were obtained:
HRV5 = assay: Anti-rhinovirus spectrum (MTT), HRV5; format: cell-based, human rhinovirus; set-up: Anti-Rhinovirus activity, HRV5: unit not given here; conditions: HRV5
HRV41 (56110) = assay: Anti-rhinovirus spectrum (MTT), HRV41; format: cell-based, human rhinovirus; set-up: Anti-Rhinovirus activity, HRV41: unit not given here; conditions: HRV41
[1] = test system: Poliovirus type 1 (Polio 1, Sabin); assay: microbe, parasite or virus in culture; format: cell-based
[2] = test system: coxsackievirus type A7 (CA7); assay: In vitro anti-picornavirus activity (MTT), CA7; format: cell-based; conditions: HeLa-S3 cells, MTT method, 37° C.
[3] = test system: clinical isolate (89229T); assay: microbe, parasite or virus in culture; format: cell-based, human rhinovirus; set-up: Anti-Rhinovirus activity, Clinical isolated strain: unit not given here; conditions: Clinical isolated strain
HRV33 (1200) = assay: Anti-rhinovirus spectrum (MTT), HRV33; format: cell-based, human rhinovirus; set-up: Anti-Rhinovirus activity, HRV33: unit not given here; conditions: HRV33
HRV16 (11757) = assay: Anti-rhinovirus spectrum (MTT), HRV16; format: cell-based, human rhinovirus; set-up: Anti-Rhinovirus activity, HRV16: unit not given here; conditions: HRV16
HRV1A (E28) = assay: Anti-rhinovirus activity (MTT), HRV1A; format: cell-based, human rhinovirus; set-up: Anti-Rhinovirus activity, HRV1A: unit not given here; conditions: for IC50 HRV 1A: HeLa (Ohio strain) cells, MTT method, 33° C.
[4] = test system: coxsackievirus type B4 (CB4,JVB); assay: In vitro anti-picornavirus activity (MTT), CB4; format: cell-based; conditions: HeLa cells, MTT method, 37° C.
HeLa cells = assay: Cytotoxicity (MTT, without virus), HeLa; conditions: HeLa, no virus, incubated for 4 days
[5] = test system: echovirus type 11 (Echo 11, Gregory); assay: In vitro anti-picornavirus activity (MTT), Echo 11; format: cell-based; conditions: HeLa-S3 cells, MTT method, 37° C.
HRV8(MRH) = assay: Anti-rhinovirus spectrum (MTT), HRV8; format: cell-based, human rhinovirus; set-up: Anti-Rhinovirus activity, HRV8: unit not given here; conditions: HRV8
HRV 2 (HGP) = assay: Anti-rhinovirus activity (MTT), HRV2; format: cell-based, human rhinovirus; set-up: Anti-Rhinovirus activity, HRV2: unit not given here; conditions: for IC50 HRV2: HeLa (Ohio strain) cells, MTT method, 33° C.
HRV21 (47) = assay: Anti-rhinovirus spectrum (MTT), HRV21; format: cell-based, human rhinovirus; set-up: Anti-Rhinovirus activity, HRV21: unit not given here; conditions: HRV21
HRV13 (353) = assay: Anti-rhinovirus spectrum (MTT), HRV13; format: cell-based, human rhinovirus; set-up: Anti-Rhinovirus activity, HRV13: unit not given here; conditions: HRV13
HRV10 (204-CV14) = assay: Anti-rhinovirus spectrum (MTT), HRV10; format: cell-based, human rhinovirus; set-up: Anti-Rhinovirus activity, HRV10: unit not given here; conditions: HRV10
[6] = test system: human rhinovirus type 1B (HRV 1B, B632); assay: Anti-rhinovirus activity (MTT), HRV1B; format: cell-based; set-up: Anti-Rhinovirus activity, HRV1B: unit not given here; conditions: for IC50 HRV1B: HeLa (Ohio strain) cells, MTT method, 33° C.
HRV14 (1059) = assay: Anti-rhinovirus activity (MTT), HRV14; format: cell-based, human rhinovirus; set-up: Anti-Rhinovirus activity, HRV14: unit not given here; conditions: for IC50 HRV 14: HeLa (Ohio strain) cells, MTT method, 33° C.
HRV39 (209) = assay: Anti-rhinovirus spectrum (MTT), HRV39; format: cell-based, human rhinovirus; set-up: Anti-Rhinovirus activity, HRV39: unit not given here; conditions: HRV39
HRV29 (5582) = assay: Anti-rhinovirus spectrum (MTT), HRV29; format: cell-based, human rhinovirus; set-up: Anti-Rhinovirus activity, HRV29: unit not given here; conditions: HRV29
HRV50(A2#58) = assay: Anti-rhinovirus spectrum (MTT), HRV50; format: cell-based, human rhinovirus; set-up: Anti-Rhinovirus activity, HRV50: unit not given here; conditions: HRV50
HRV32 (363) = assay: Anti-rhinovirus spectrum (MTT), HRV32; format: cell-based, human rhinovirus; set-up: Anti-Rhinovirus activity, HRV32: unit not given here; conditions: HRV32
HRV36 (342H) = assay: Anti-rhinovirus spectrum (MTT), HRV36; format: cell-based, human rhinovirus; set-up: Anti-Rhinovirus activity, HRV36: unit not given here; conditions: HRV36
HRV3(FEB) = assay: Anti-rhinovirus spectrum (MTT), HRV3; format: cell-based, human rhinovirus; set-up: Anti-Rhinovirus activity, HRV3: unit not given here; conditions: HRV3
HRV31 (41F) = assay: Anti-rhinovirus spectrum (MTT), HRV31; format: cell-based, human rhinovirus; set-up: Anti-Rhinovirus activity, HRV31: unit not given here; conditions: HRV31
HeLa (Ohio strain)cells = assay: Cytotoxicity (MTT, without virus), HeLa(Ohio); conditions: HeLa(Ohio), no virus, incubated for 4 days
HRV 89 (41617-Gallo) = assay: Anti-rhinovirus activity (MTT), HRV89; format: cell-based, human rhinovirus; set-up: Anti-Rhinovirus activity, HRV89: unit not given here; conditions: for IC50 HRV89: HeLa (Ohio strain) cells, MTT method, 33° C.
HeLa-S3 cells = assay: Cytotoxicity (MTT, without virus), HeLa-S3; conditions: HeLa-S3, no virus, incubated for 4 days
HRV61 (6669-CV39) = assay: Anti-rhinovirus spectrum (MTT), HRV61; format: cell-based, human rhinovirus; set-up: Anti-Rhinovirus activity, HRV61: unit not given here; conditions: HRV61

| Structure (SMILES) | Anti-Rhinovirus activity, HRV5 (HRV5) | Anti-Rhinovirus activity, HRV41 (HRV41 (56110)) | IC50 Polio 1 [1] [µg/mL] | IC50 CA7 [2] [µg/mL] | Anti-Rhinovirus activity, Clinical isolated strain [3] | Anti-Rhinovirus activity, HRV33 (HRV33 (1200)) | Anti-Rhinovirus activity, HRV16 (HRV16 (11757)) | Anti-Rhinovirus activity, HRV1A (HRV1A (E28)) | IC50 HRV 1A (HRV1A (E28)) [µg/mL] | IC50 CB4 [4] [µg/mL] | Cytotoxicity CC50 HeLa (HeLa cells) [µg/mL] | IC50 Echo 11 [5] [µg/mL] | Anti-Rhinovirus activity, HRV8 (HRV8(MRH)) | Anti-Rhinovirus activity, HRV2 (HRV 2 (HGP)) | IC50 HRV2 (HRV 2 (HGP)) [µg/mL] | Anti-Rhinovirus activity, HRV21 (HRV21 (47)) | Anti-Rhinovirus activity, HRV13 (HRV13 (353)) | Anti-Rhinovirus activity, HRV10 (HRV10 (204-CV14)) | Anti-Rhinovirus activity, HRV1B [6] | IC50 HRV1B [6] [µg/mL] | further results |
| --- | --- | --- | --- | --- | --- | --- | --- | --- | --- | --- | --- | --- | --- | --- | --- | --- | --- | --- | --- | --- | --- |
| CCn1c2c(c(=O)c3c(C(C)C)c(OC)ccc31)Cc1ccccc1-2 [Compound B7] | 0.22 | 0.064 | 0.42 (≈ 1.26 µM) | 1.4 (≈ 4.2 µM) | 0.50 | 0.097 | 0.98 | 1.7 | 1.7 (≈ 5.1 µM) | 0.52 (≈ 1.56 µM) | >2.5 | 0.25 (≈ 0.75 µM) | 0.32 | 0.36 | 0.36 (≈ 1.08 µM) | 0.11 | 0.13 | 0.41 | 0.20 | 0.17 (≈ 0.51 µM) | Anti-Rhinovirus activity, HRV14 (HRV14 (1059)): 0.49; IC50 HRV 14 (HRV14 (1059)): 0.49 µg/mL (≈ 1.47 µM); Anti-Rhinovirus activity, HRV39 (HRV39 (209)): 0.38; Anti-Rhinovirus activity, HRV29 (HRV29 (5582)): 0.43; Anti-Rhinovirus activity, HRV50 (HRV50(A2#58)): 0.12; Anti-Rhinovirus activity, HRV32 (HRV32 (363)): 0.30; Anti-Rhinovirus activity, HRV36 (HRV36 (342H)): 0.16; Anti-Rhinovirus activity, HRV3 (HRV3(FEB)): 0.49; Anti-Rhinovirus activity, HRV31 (HRV31 (41F)): 0.13; Cytotoxicity CC50 HeLa(Ohio) (HeLa (Ohio strain)cells): >2.5 µg/mL; Anti-Rhinovirus activity, HRV89 (HRV 89 (41617-Gallo)): 0.30; IC50 HRV89 (HRV 89 (41617-Gallo)): 0.30 µg/mL (≈ 0.9 µM); Cytotoxicity CC50 HeLa-S3 (HeLa-S3 cells): >2.5 µg/mL; Anti-Rhinovirus activity, HRV61 (HRV61 (6669-CV39)): 0.28 |
| CCn1c2c(c(=O)c3cc(C(C)C)ccc31)Cc1cc(OC)ccc1-2 [Compound B10] | 0.24 | 0.007 | 0.17 (≈ 0.51 µM) | 1.4 (≈ 4.2 µM) | 0.75 | 0.11 | 0.57 | 1.9 | 1.9 (≈ 5.7 µM) | 0.57 (≈ 1.71 µM) | >2.5 | 0.14 (≈ 0.42 µM) | 0.20 | 0.16 | 0.16 (≈ 0.48 µM) | 0.16 | 0.12 | 0.41 | 0.25 | 0.25 (≈ 0.75 µM) | Anti-Rhinovirus activity, HRV14 (HRV14 (1059)): 0.52; IC50 HRV 14 (HRV14 (1059)): 0.52 µg/mL (≈ 1.56 µM); Anti-Rhinovirus activity, HRV39 (HRV39 (209)): 0.39; Anti-Rhinovirus activity, HRV29 (HRV29 (5582)): 0.44; Anti-Rhinovirus activity, HRV50 (HRV50(A2#58)): 0.10; Anti-Rhinovirus activity, HRV32 (HRV32 (363)): 0.36; Anti-Rhinovirus activity, HRV36 (HRV36 (342H)): 0.17; Anti-Rhinovirus activity, HRV3 (HRV3(FEB)): 0.48; Anti-Rhinovirus activity, HRV31 (HRV31 (41F)): 0.15; Cytotoxicity CC50 HeLa(Ohio) (HeLa (Ohio strain)cells): >2.5 µg/mL; Anti-Rhinovirus activity, HRV89 (HRV 89 (41617-Gallo)): 0.33; IC50 HRV89 (HRV 89 (41617-Gallo)): 0.33 µg/mL (≈ 0.99 µM); Cytotoxicity CC50 HeLa-S3 (HeLa-S3 cells): >2.5 µg/mL; Anti-Rhinovirus activity, HRV61 (HRV61 (6669-CV39)): 0.24 |
| CCn1c2c(c(=O)c3cc(CC(C)C)ccc31)Cc1cc(OC)ccc1-2 [Compound B12] | 0.29 | 0.11 | 0.39 (≈ 1.12 µM) | 2.0 (≈ 5.76 µM) | 0.46 | 0.12 | 1.4 | >2.5 | >2.5 | 0.63 (≈ 1.81 µM) | >2.5 | 0.19 (≈ 0.547 µM) | 0.32 | 0.31 | 0.31 (≈ 0.892 µM) | 0.17 | 0.091 | 0.43 | 0.25 | 0.25 (≈ 0.72 µM) | Anti-Rhinovirus activity, HRV14 (HRV14 (1059)): 0.43; IC50 HRV 14 (HRV14 (1059)): 0.43 µg/mL (≈ 1.24 µM); Anti-Rhinovirus activity, HRV39 (HRV39 (209)): 0.38; Anti-Rhinovirus activity, HRV29 (HRV29 (5582)): 0.44; Anti-Rhinovirus activity, HRV50 (HRV50(A2#58)): 0.12; Anti-Rhinovirus activity, HRV32 (HRV32 (363)): 0.33; Anti-Rhinovirus activity, HRV36 (HRV36 (342H)): 0.21; Anti-Rhinovirus activity, HRV3 (HRV3(FEB)): 0.52; Anti-Rhinovirus activity, HRV31 (HRV31 (41F)): 0.11; Cytotoxicity CC50 HeLa(Ohio) (HeLa (Ohio strain)cells): >2.5 µg/mL; Anti-Rhinovirus activity, HRV89 (HRV 89 (41617-Gallo)): 0.31; IC50 HRV89 (HRV 89 (41617-Gallo)): 0.31 µg/mL (≈ 0.892 µM); Cytotoxicity CC50 HeLa-S3 (HeLa-S3 cells): >2.5 µg/mL; Anti-Rhinovirus activity, HRV61 (HRV61 (6669-CV39)): 0.31 |
